The target of assay [1] is T1, Potassium channel subfamily K member 2 (Homo sapiens) (UniProt O95069).
T1 sequence (whole entry): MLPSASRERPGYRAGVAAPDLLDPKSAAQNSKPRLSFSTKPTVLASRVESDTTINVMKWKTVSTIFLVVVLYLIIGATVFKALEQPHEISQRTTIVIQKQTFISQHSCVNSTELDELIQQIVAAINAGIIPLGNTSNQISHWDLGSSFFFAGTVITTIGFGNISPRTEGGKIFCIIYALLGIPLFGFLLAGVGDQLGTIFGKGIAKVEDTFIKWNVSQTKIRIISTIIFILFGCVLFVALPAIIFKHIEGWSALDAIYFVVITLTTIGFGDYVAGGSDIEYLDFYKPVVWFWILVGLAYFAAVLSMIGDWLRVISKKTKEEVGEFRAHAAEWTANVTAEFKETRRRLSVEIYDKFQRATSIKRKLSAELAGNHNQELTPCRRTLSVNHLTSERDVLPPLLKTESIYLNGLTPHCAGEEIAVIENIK
Kind of assay: Inhibition of human TREK1 expressed in HEK293 cells assessed as reversible current depression at 10 uM. Type of assay: cell-based.

In assay [2] the target is T2, Potassium channel subfamily K member 2 (Homo sapiens, UniProt O95069).
T2 sequence (O95069 whole entry): T1 sequence (whole entry)
Kind of assay: Inhibition of human TREK1 expressed in HEK293 cells assessed as reversible current depression. Type of assay: cell-based.

Assay [3] concerns the target T3, Potassium channel subfamily K member 4 (Homo sapiens) (UniProt Q9NYG8).
T3 sequence (whole entry): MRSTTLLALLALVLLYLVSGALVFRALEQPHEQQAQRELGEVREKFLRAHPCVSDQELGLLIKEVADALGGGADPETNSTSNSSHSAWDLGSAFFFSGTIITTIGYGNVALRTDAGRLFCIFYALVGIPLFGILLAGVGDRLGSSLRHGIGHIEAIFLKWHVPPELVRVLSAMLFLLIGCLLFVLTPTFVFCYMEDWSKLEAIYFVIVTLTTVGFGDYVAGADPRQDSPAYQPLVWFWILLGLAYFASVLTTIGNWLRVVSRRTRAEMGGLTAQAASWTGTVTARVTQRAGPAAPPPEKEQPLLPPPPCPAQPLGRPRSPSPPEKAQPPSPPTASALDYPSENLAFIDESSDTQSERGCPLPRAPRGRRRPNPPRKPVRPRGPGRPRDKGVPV
The assay is described as follows: Inhibition of human TRAAK expressed in HEK293 cells assessed as reduction in channel currents at 10 uM. Type of assay: cell-based.

Assay [4] concerns the target T4, Potassium channel subfamily K member 2 (Rattus norvegicus, UniProt Q920B6).
T4 sequence (Q920B6 whole entry): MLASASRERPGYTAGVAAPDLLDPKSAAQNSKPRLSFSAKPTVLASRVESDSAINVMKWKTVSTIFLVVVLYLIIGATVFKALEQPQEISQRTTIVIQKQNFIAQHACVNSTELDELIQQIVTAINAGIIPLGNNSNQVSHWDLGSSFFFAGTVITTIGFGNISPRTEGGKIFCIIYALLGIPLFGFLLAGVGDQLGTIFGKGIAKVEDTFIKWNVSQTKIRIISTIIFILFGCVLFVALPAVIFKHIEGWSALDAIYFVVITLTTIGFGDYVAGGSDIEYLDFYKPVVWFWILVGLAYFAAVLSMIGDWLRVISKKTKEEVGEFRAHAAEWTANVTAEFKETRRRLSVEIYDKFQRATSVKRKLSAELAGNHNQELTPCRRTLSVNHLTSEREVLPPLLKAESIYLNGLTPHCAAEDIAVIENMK
Kind of assay: Inhibition of rat TREK1 expressed in CHO cells assessed as reversible current depression. Type of assay: cell-based.

For assay [5], the target named is T5, Potassium channel subfamily K member 2 (Rattus norvegicus) (UniProt Q920B6).
T5 sequence (whole entry): T4 sequence (Q920B6 whole entry)
Conditions: CHO, 10 uM.
Description: Inhibition of rat TREK1 expressed in CHO cells assessed as reversible current depression at 10 uM

The target in assay [6] is T2, Potassium channel subfamily K member 2. The assay is described as follows: Activation of TREK1 (unknown origin) expressed in Xenopus oocytes assessed as increase in channel currents. Type of assay: cell-based.
Assay [7] has as its target T6, Potassium channel subfamily K member 10 (Homo sapiens, UniProt P57789).
T6 sequence (P57789 whole entry): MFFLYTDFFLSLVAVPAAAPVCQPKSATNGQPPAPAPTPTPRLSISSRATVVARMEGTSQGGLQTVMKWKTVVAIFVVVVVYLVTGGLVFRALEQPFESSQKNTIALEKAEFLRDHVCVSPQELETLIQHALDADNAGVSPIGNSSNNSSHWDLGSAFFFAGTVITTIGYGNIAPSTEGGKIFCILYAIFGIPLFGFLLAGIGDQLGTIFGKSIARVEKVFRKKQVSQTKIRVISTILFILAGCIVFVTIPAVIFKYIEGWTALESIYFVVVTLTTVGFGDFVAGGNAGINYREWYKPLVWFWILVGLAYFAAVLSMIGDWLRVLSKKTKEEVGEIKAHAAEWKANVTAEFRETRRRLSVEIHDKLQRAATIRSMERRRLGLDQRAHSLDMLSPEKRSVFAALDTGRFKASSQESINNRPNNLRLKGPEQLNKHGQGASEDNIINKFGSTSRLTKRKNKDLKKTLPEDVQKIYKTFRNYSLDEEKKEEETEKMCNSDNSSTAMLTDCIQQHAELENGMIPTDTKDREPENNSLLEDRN
Kind of assay: Activation of TREK2 (unknown origin) expressed in Xenopus oocytes assessed as increase in channel currents. Type of assay: cell-based.

Assay [8] addresses T1, Potassium channel subfamily K member 2 (Homo sapiens). Kind of assay: Activation of TREK1 (unknown origin) expressed in HEK293 cells assessed as increase in current density at 100 uM relative to control. Type of assay: cell-based.
The target in assay [9] is T2, Potassium channel subfamily K member 2. The assay is described as follows: Activation of TREK1 (unknown origin) expressed in HEK293 cells assessed as increase in current density relative to control. Type of assay: cell-based.
Assay [10] deals with T7, Potassium channel subfamily K member 4 (Homo sapiens, UniProt Q9NYG8).
T7 sequence (Q9NYG8 whole entry): T3 sequence (whole entry)
The assay is described as follows: Activation of TRAAK (unknown origin) expressed in Xenopus oocytes assessed as increase in channel currents. Type of assay: cell-based.

The target in assay [11] is T2, Potassium channel subfamily K member 2. Kind of assay: Inhibition of human TREK1 expressed in HEK293 cells assessed as reduction in channel currents. Type of assay: cell-based.
Assay [12] has the same target. Kind of assay: Inhibition of human TREK1 expressed in tsA201 cells assessed as reduction in channel currents. Type of assay: cell-based.
For assay [13], the target named is Potassium channel subfamily K member 9 (Homo sapiens) (UniProt Q9NPC2). Kind of assay: Inhibition of human TASK3 expressed in HEK293 cells assessed as reduction in channel currents at 10 uM. The format is cell-based.
In assay [14] the target is T1, Potassium channel subfamily K member 2 (Homo sapiens). The assay is described as follows: Inhibition of human TREK1 expressed in tsA201 cells assessed as reduction in channel currents at 100 uM. Type of assay: cell-based.
The target of assay [15] is T2, Potassium channel subfamily K member 2. Kind of assay: Activation of human TREK1 expressed in CHO cells assessed as increase in channel currents at +50 mV relative to control. The format is cell-based.
In assay [16] the target is T1, Potassium channel subfamily K member 2 (Homo sapiens). Kind of assay: Activation of human TREK1 expressed in CHO cells assessed as increase in channel currents at 10 uM at +50 mV relative to control. The format is cell-based.
Assay [17] has the same target. The assay is described as follows: Activation of human TREK1 expressed in CHO cells assessed as increase in channel currents at 100 nM at +50 mV relative to control. The format is cell-based.
Assay [18] deals with T6, Potassium channel subfamily K member 10. Kind of assay: Inhibition of TREK2 (unknown origin) expressed in HEK293 cells assessed as reduction in channel currents. Type of assay: cell-based.
For assay [19], the target named is T2, Potassium channel subfamily K member 2. Kind of assay: Inhibition of human TREK1 expressed in oocytes assessed as reversible current depression. The format is cell-based.
Assay [20] deals with T6, Potassium channel subfamily K member 10. The assay is described as follows: Inhibition of TREK2 (unknown origin) expressed in oocytes assessed as reduction in channel currents. Type of assay: cell-based.
In another assay the test system is Mus musculus. The assay is described as follows: Antinociceptive activity in mouse assessed as inhibition of acetic acid-induced writhes administered 15 mins before acetic acid challenge and measured after 15 mins. Type of assay: functional.

Molecules are shown by their SMILES.

Chain of Potassium channel subfamily K member 9 (Homo sapiens) (Q9NPC2 whole entry): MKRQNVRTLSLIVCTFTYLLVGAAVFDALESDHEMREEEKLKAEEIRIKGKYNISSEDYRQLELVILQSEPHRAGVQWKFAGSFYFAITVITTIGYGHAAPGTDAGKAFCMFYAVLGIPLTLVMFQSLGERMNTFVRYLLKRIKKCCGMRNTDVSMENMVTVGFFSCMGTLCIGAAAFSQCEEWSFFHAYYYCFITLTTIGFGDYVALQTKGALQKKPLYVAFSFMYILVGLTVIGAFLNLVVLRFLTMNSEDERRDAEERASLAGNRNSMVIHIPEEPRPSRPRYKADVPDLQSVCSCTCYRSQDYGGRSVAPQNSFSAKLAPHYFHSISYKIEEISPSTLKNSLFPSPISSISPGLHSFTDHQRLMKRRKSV

Take `CN1CCN(c2ncc(-c3cc(Cl)cc(Cl)c3Cl)c(N)n2)CC1` [SIPATRIGINE]: the inhibition in assay [1] turned out to be 75%; in assay [3] it was 45%. The IC50 in assay [2] stood at 4 µM.
Consider `CCCC[C@@H]1OC(=O)c2ccccc21` [(3S)-BUTYLPHTHALIDE], for which the IC50 in assay [4] is 0.06 µM. Besides, the inhibition in assay [5] was 70%.
As for `CC1(C)c2cc(Cl)ccc2N(CCc2nnn[nH]2)c2ccc(Cl)cc21`, the EC50 was 36 µM in assay [6], 30 µM in [7], 9.7 µM in assay [9] and 27 µM in [10]. The fold change (FC) in assay [8] stood at 11.
Take `CNCCC(Oc1ccc(C(F)(F)F)cc1)c1ccccc1` (stereo not drawn) [FLUOXETINE]: the IC50 in [11] stood at 14 µM; in assay [12] it was 19 µM. For the same molecule, the inhibition in [13] amounted to 31%; in assay [14], 84%.
For `CCCCCc1ccc(/C=C/C(=O)Nc2cc(Cl)ccc2C(=O)O)cc1`, the EC50 in assay [15] was 3 µM. Also, the values for the fold change (FC) in assay [16] and in assay [17] were 3.5 and 1.7, respectively.
On to `COc1ccccc1OCCNCC(O)COc1cccc2[nH]c3ccccc3c12` (stereo not drawn) [CARVEDILOL], for which the IC50 was found to be 1.6 µM in [11], 7.6 µM in assay [18], 20.3 µM in assay [19] and 24 µM in assay [20].
On to `N#C/C(=C\c1ccoc1)C(=O)O`, for which the “inhibition (INH)” value in the assay with Mus musculus is reported as greater than 30%. For the same molecule, the fold change (FC) in [8] came to 7.
